# Where a SMILES comes first, the peptide text is derived from it. Bridges are numbered along the chain shown (N, C = ends). [ ]: non-standard residue; d: D form. ξ: configuration not given here. Trp(7-Br) = N[C@@H](Cc1c[nH]c2c(Br)cccc12)C(=O)O; Hyp = O=C(O)[C@@H]1C[C@@H](O)CN1; NMeNle = CCCC[C@H](NC)C(=O)O; Pip = O=C(O)[C@@H]1CCCCN1; NMeA = CN[C@@H](C)C(=O)O; Orn = NCCC[C@H](N)C(=O)O; Dab = NCC[C@H](N)C(=O)O; Dap = NC[C@H](N)C(=O)O; ξPip = O=C(O)C1CCCCN1
# Molecular target: T1, Human PD-L1/PD-1 (Homo sapiens, UniProt Q9NZQ7)
# T1 construct: TVMV protease cleavage site (C); made in house; host or cells: HEK293T cells
# Assay: HTRF Human PD-L1/PD-1 binding assay (PD-1-Ig/PD-L1-His)
# Conditions: PD-L1-His 10 nM, PD-1-Ig 20 nM; class symbol; read-out: HTRF Human PD-L1/PD-1 Binding Assay IC50 Range
# Method in brief: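 Soluble HEK293T-expressed proteins: hPD-L1-His 10 nM, hPD-1-Ig 20 nM final. Cpd + PD-L1 15 min, + PD-1 15 min, + Eu anti-Ig 1 nM/APC anti-His 20 nM 30 min. Buffer dPBS, 0.1% BSA, 0.05% Tween-20. TR-FRET 665/620.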
# T1 sequence (Q9NZQ7 with tags, fused parts or gaps): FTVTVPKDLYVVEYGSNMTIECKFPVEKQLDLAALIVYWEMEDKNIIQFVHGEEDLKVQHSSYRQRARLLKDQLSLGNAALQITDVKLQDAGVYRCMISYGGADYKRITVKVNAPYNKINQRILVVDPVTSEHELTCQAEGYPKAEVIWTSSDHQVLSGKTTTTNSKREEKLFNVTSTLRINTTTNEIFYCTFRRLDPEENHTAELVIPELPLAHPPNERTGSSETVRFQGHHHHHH
row,IC50 [nM],Structure (SMILES)
1,10 to 99.9,CCCC[C@H]1C(=O)N(C)[C@@H](CCCC)C(=O)N[C@@H](CCCN)C(=O)N[C@H](C(=O)NCC(N)=O)CSCC(=O)N[C@@H](Cc2ccc(O)cc2)C(=O)N2CCCCC2C(=O)N[C@@H](CC(=O)O)C(=O)N2CCC[C@H]2C(=O)N[C@@H](CN)C(=O)N[C@@H](CCC(=O)O)C(=O)N2C[C@H](O)C[C@H]2C(=O)N[C@@H](Cc2c[nH]c3ccccc23)C(=O)N[C@@H](CCN)C(=O)N[C@@H](Cc2c[nH]c3ccccc23)C(=O)N1C (stereo partly drawn) [Example 1528] ({CH2CO}-Y[ξPip]DP[Dap]E[Hyp]W[Dab]W[NMeNle][NMeNle][Orn]CG-NH2; thioether N-14)
2,1 to 9.9,CCCC[C@H]1C(=O)N(C)[C@@H](CCCC)C(=O)N[C@@H](C)C(=O)N[C@H](C(=O)NCC(N)=O)CSCC(=O)N[C@@H](Cc2ccc(O)cc2)C(=O)N2CCNC[C@H]2C(=O)N[C@@H](CC(N)=O)C(=O)N2CCC[C@H]2C(=O)N[C@@H](Cc2c[nH]cn2)C(=O)N[C@@H](CC(C)C)C(=O)N2C[C@H](O)C[C@H]2C(=O)N[C@@H](Cc2c[nH]c3ccccc23)C(=O)N[C@@H](CO)C(=O)N[C@@H](Cc2c[nH]c3ccccc23)C(=O)N1C [Example 1529]
3,10 to 99.9,CCCC[C@H]1C(=O)N(C)[C@@H](CCCC)C(=O)N[C@@H](CCCN)C(=O)N[C@H](C(=O)NCC(N)=O)CSCC(=O)N[C@@H](Cc2ccc(O)cc2)C(=O)N2CCCCC2C(=O)N[C@@H](CC(=O)O)C(=O)N2CCC[C@H]2C(=O)N[C@@H](CN)C(=O)N[C@@H](CCC(=O)O)C(=O)N2C[C@H](O)C[C@H]2C(=O)N[C@@H](Cc2c[nH]c3ccccc23)C(=O)N[C@@H](CO)C(=O)N[C@@H](Cc2c[nH]c3ccccc23)C(=O)N1C (stereo partly drawn) [Example 1530] ({CH2CO}-Y[ξPip]DP[Dap]E[Hyp]WSW[NMeNle][NMeNle][Orn]CG-NH2; thioether N-14)
4,10 to 99.9,CCCC[C@H]1C(=O)N(C)[C@@H](CCCC)C(=O)N[C@@H](CCCN)C(=O)N[C@H](C(=O)NCC(N)=O)CSCC(=O)N[C@@H](Cc2ccc(O)cc2)C(=O)N2CCCCC2C(=O)N[C@@H](CC(=O)O)C(=O)N2CCC[C@H]2C(=O)N[C@@H](Cc2c[nH]cn2)C(=O)N[C@@H](CCC(=O)O)C(=O)N2C[C@H](O)C[C@H]2C(=O)N[C@@H](Cc2c[nH]c3ccccc23)C(=O)N[C@@H](CCN)C(=O)N[C@@H](Cc2c[nH]c3ccccc23)C(=O)N1C (stereo partly drawn) [Example 1531] ({CH2CO}-Y[ξPip]DPHE[Hyp]W[Dab]W[NMeNle][NMeNle][Orn]CG-NH2; thioether N-14)
5,1 to 9.9,CCCC[C@H]1C(=O)N(C)[C@@H](CCCC)C(=O)N[C@@H](CCCN)C(=O)N[C@H](C(=O)NCC(N)=O)CSCC(=O)N[C@@H](Cc2ccc(O)cc2)C(=O)N2CCOCC2C(=O)N[C@@H](CC(N)=O)C(=O)N2CCC[C@H]2C(=O)N[C@@H](Cc2c[nH]cn2)C(=O)N[C@@H](CC(C)C)C(=O)N2C[C@H](O)C[C@H]2C(=O)N[C@@H](Cc2c[nH]c3ccccc23)C(=O)N[C@@H](CO)C(=O)N[C@@H](Cc2c[nH]c3ccccc23)C(=O)N1C (stereo partly drawn) [Example 1532]
6,1 to 9.9,CCCC[C@H]1C(=O)N(C)[C@@H](CCCC)C(=O)N[C@@H](CC(=O)O)C(=O)N[C@H](C(=O)NCC(N)=O)CSCC(=O)N[C@@H](Cc2ccc(O)cc2)C(=O)N2CCCCC2C(=O)N[C@@H](CC(=O)O)C(=O)N2CCC[C@H]2C(=O)N[C@@H](Cc2c[nH]cn2)C(=O)N[C@@H](CCCN)C(=O)N2C[C@H](O)C[C@H]2C(=O)N[C@@H](Cc2c[nH]c3ccccc23)C(=O)N[C@@H](CCCN)C(=O)N[C@@H](Cc2csc3ccccc23)C(=O)N1C (stereo partly drawn) [Example 1533]
7,10 to 99.9,CCCC[C@H]1C(=O)N(C)[C@@H](CCCC)C(=O)N[C@@H](CCCN)C(=O)N[C@H](C(=O)NCC(N)=O)CSCC(=O)N[C@@H](Cc2ccc(O)cc2)C(=O)N2CCNC[C@H]2C(=O)N[C@@H](CC(N)=O)C(=O)N2CCC[C@H]2C(=O)N[C@@H](Cc2c[nH]cn2)C(=O)N[C@@H](CC(C)C)C(=O)N2C[C@H](O)C[C@H]2C(=O)N[C@@H](Cc2c[nH]c3ccccc23)C(=O)N[C@@H](CO)C(=O)N[C@@H](Cc2c[nH]c3ccccc23)C(=O)N1C [Example 1535]
8,10 to 99.9,CCCC[C@H]1C(=O)N(C)[C@@H](CCCC)C(=O)N[C@@H](CCCN)C(=O)N[C@H](C(=O)NCC(N)=O)CSCC(=O)N[C@@H](Cc2ccc(O)cc2)C(=O)N2CCCC[C@H]2C(=O)N[C@@H](CC(=O)O)C(=O)N2CCC[C@H]2C(=O)N[C@@H](Cc2c[nH]cn2)C(=O)N[C@@H](CCC(=O)O)C(=O)N2C[C@H](O)C[C@H]2C(=O)N[C@@H](Cc2c[nH]c3ccccc23)C(=O)N[C@@H](CO)C(=O)N[C@@H](Cc2c[nH]c3ccccc23)C(=O)N1C [Example 1536] ({CH2CO}-Y[Pip]DPHE[Hyp]WSW[NMeNle][NMeNle][Orn]CG-NH2; thioether N-14)
9,10 to 99.9,CCCC[C@H]1C(=O)N(C)[C@@H](CCCC)C(=O)N[C@@H](CCCNC(=N)N)C(=O)N[C@H](C(=O)NCC(N)=O)CSCC(=O)N[C@@H](Cc2ccc(O)cc2)C(=O)N2CCCC[C@H]2C(=O)N[C@@H](CC(=O)O)C(=O)N2CCC[C@H]2C(=O)N[C@@H](Cc2c[nH]cn2)C(=O)N[C@@H](CCCN)C(=O)N2C[C@H](O)C[C@H]2C(=O)N[C@@H](Cc2c[nH]c3ccccc23)C(=O)N[C@@H](CO)C(=O)N[C@@H](Cc2c[nH]c3ccccc23)C(=O)N1C [Example 1537] ({CH2CO}-Y[Pip]DPH[Orn][Hyp]WSW[NMeNle][NMeNle]RCG-NH2; thioether N-14)
10,10 to 99.9,CCCC[C@H]1C(=O)N(C)[C@@H](CCCC)C(=O)N[C@@H](CCCNC(=N)N)C(=O)N[C@H](C(=O)NCC(N)=O)CSCC(=O)N[C@@H](Cc2ccc(O)cc2)C(=O)N2CCCC[C@H]2C(=O)N[C@@H](CCC(=O)O)C(=O)N2CCC[C@H]2C(=O)N[C@@H](Cc2c[nH]cn2)C(=O)N[C@@H](CCCN)C(=O)N2C[C@H](O)C[C@H]2C(=O)N[C@@H](Cc2c[nH]c3ccccc23)C(=O)N[C@@H](CO)C(=O)N[C@@H](Cc2c[nH]c3ccccc23)C(=O)N1C [Example 1538] ({CH2CO}-Y[Pip]EPH[Orn][Hyp]WSW[NMeNle][NMeNle]RCG-NH2; thioether N-14)

# Same assay, conditions: PD-L1-His 10 nM, PD-1-Ig 20 nM; read-out: HTRF Human PD-L1/PD-1 Binding Assay IC50
row,IC50 [nM],Structure (SMILES)
1,1000,CC(C)C[C@@H]1NC(=O)[C@H](Cc2c[nH]cn2)NC(=O)[C@@H]2CCCN2C(=O)[C@H](CC(N)=O)NC(=O)[C@H](C)N(C)C(=O)[C@H](Cc2ccc(O)cc2)NC(=O)CSC[C@@H](C(=O)NCC(N)=O)NC(=O)[C@H](C)NC(=O)[C@H](CC(=O)O)N(C)C(=O)[C@H](CCCCN)N(C)C(=O)[C@H](Cc2c[nH]c3ccccc23)NC(=O)[C@H](CO)NC(=O)[C@H](Cc2c[nH]c3ccccc23)NC(=O)[C@@H]2C[C@@H](O)CN2C1=O [Example 1534]
2,451,CCCC[C@H]1C(=O)N(C)[C@@H](CCCC)C(=O)N[C@@H](C)C(=O)N[C@H](C(=O)NCC(N)=O)CSCC(=O)N[C@@H](Cc2ccc(O)cc2)C(=O)N(C)[C@@H](C)C(=O)N[C@@H](CC(N)=O)C(=O)N2CCC[C@H]2C(=O)N[C@@H](Cc2cnc[nH]2)C(=O)N[C@@H](CCC(N)=O)C(=O)N2C[C@H](O)C[C@H]2C(=O)N[C@@H](Cc2c[nH]c3ccccc23)C(=O)N[C@@H](CO)C(=O)N[C@@H](Cc2c[nH]c3c(Br)cccc23)C(=O)N1C [Example 1541] ({CH2CO}-Y[NMeA]NPHQ[Hyp]WS[Trp(7-Br)][NMeNle][NMeNle]ACG-NH2; thioether N-14)

# — patent US10538555B2, “Macrocyclic inhibitors of the PD-1/PD-L1 and CD80(B7-1)/PD-L1 protein/protein interactions” (BRISTOL-MYERS SQUIBB COMPANY, priority 2014, dated 2020)
